The conditions of series [1]: clinical trials discontinued; cited from earlier work.
In series [2] the test system is SK-BR3 cells. The series can be described thus: Anti-proliferative effect / cytotoxicity on SK-BR-3 breast tumor cells (crystal violet, FIG. 4). It is filed as cell-based, human.
Description: SK-BR-3 human breast carcinoma cells were from The American Type Culture Collection (Rockville, Md.). […] SK-BR-3 cells were cultured in high glucose DMEM:Ham's F-12 (50:50) supplemented with 10% heat-inactivated fetal bovine serum and 2 mM 1-glutamine (all from GIBCO/BRL, Grand Island, N.Y.).
Cells were plated at the following densities in 96-well microtiter culture plates: 2×10^4 per well for SK-BR-3; 10^4 per well for HMEC, SAEC and NHEK; and 3.5×10^4 per well for human hepatocytes (pre-plated on collagen-coated plates by In Vitro Technologies) and allowed to adhere overnight in the incubator (37° C., 5% CO2). […] After a 3 day incubation, the media were removed, the cell monolayers washed once with PBS and stained with crystal violet dye (0.5% crystal violet, 20% methanol).
For all experiments, after removal of the crystal violet dye, plates were allowed to air-dry overnight. The dye was then eluted with 0.1 M sodium citrate:ethanol (50:50), pH 4.2 and the plates read in an SLT 340 ATC plate-reader at a wavelength of 540 nm. Each treatment group consisted of 4 replicates and the data are represented as mean O.D.540+/− standard error or relative to cell proliferation as compared to untreated control cells (mean+/−s.e.).

On to `COc1cc2cc(c1Cl)N(C)C(=O)C[C@H](OC(=O)[C@H](C)N(C)C(C)=O)[C@]1(C)O[C@H]1[C@H](C)[C@@H]1C[C@@](O)(NC(=O)O1)[C@H](OC)/C=C/C=C(\C)C2` [maytansine], for which the “adverse effects in clinical trials” value in series [1] is on record as “peripheral neuropathy”.
For the compound “RITUXAN®: control, unrelated monoclonal antibody RITUXAN®”, the cell growth inhibition entry in series [2] is given as “did not inhibit cell growth”.
